Assay results: article PMC9014634 (Journal of Pharmacological Sciences, 2022)

Experiment: in vitro
Format: cell-based
Settings: human

SMILES	CC50 [µM]
C[C@]12C=CC(=O)C=C1CC[C@@H]1[C@@H]2[C@@H](O)C[C@@]2(C)[C@H]1C[C@H]1O[C@@H](C3CCCCC3)O[C@]12C(=O)CO [Cic2, desisobutyryl ciclesonide]	> 30
CC(C)C(=O)OCC(=O)[C@@]12O[C@H](C3CCCCC3)O[C@@H]1C[C@H]1[C@@H]3CCC4=CC(=O)C=C[C@]4(C)[C@H]3[C@@H](O)C[C@@]12C [Cic, Ciclesonide]	> 30
